In patent publication US8198293B2, “Oxymatrine compositions and related methods for treating and preventing chronic infectious diseases” (priority 2008, dated 2012):

Experiments:
[1] = test system: enterovirus infection (ME/CFS patients); assay: Oxymatrine open-label, controlled clinical study in ME/CFS patients with enterovirus infection; type: in vivo, human
Procedure: An open-label, controlled study was conducted on patients who fulfilled the international criteria for myalgic encephalomyelitis (ME)/chronic fatigue syndrome (CFS) and had virological evidence of enterovirus infection.
One hundred patients took oxymatrine at dose of 200-300 mg twice a day with or without food for a minimum of three months. Patients who could not complete the course due to side effects or intolerance were considered as failures (intent-to-treat analysis). Of the first group, 52% ( 52/100) responded to oxymatrine, as compared to 6% ( 7/114) of the control groups (p<0.000001, x^2 test). Of the next 104 patients, 52% responded to treatment. […] Fifty-three percent ( 57/107) of patients with elevated coxsackie virus B (CVB) and echovirus (Ech) antibody responded to therapy and 50% ( 49/97) of patients with non-typeable EV infections improved (NS, x^2 test). Fifty-two percent ( 47/91) of patients with positive EV protein in stomach biopsies responded, whereas 56% ( 5/9) of patients with negative biopsies responded (NS, x^2 test).
Relapse of symptoms was common after discontinuing oxymatrine. Fifty-nine percent ( 19/32) of patients (4 male, 15 female) relapsed within two days to one month after discontinuation of oxymatrine. Eighty-seven percent ( 13/15) of patients who relapsed responded to restart of oxymatrine. Subsequent responders were continued on oxymatrine beyond six months.
A small percentage ( 2/204) of patients had transient increase in potassium, which returned to normal without specific treatment. A small percentage of patients ( 2/204) had elevated blood pressure that prompted discontinuation of therapy. […] Transient, moderate increase in pre-existing symptoms were reported by more than 50% of the patients but most patients continued to take the herbs at the same or reduced dose. Twenty patients (10%) stopped oxymatrine within the first eight weeks due to intolerable side effects. […]

[2] = test system: cytokine gene expression (Th1/Th2); assay: Cytokine gene expression study before and during/after oxymatrine; type: in vivo, human
Source text: FIG. 4 graphically illustrates a cytokine gene expression study before and after oxymatrine (RQ is the gene expression ratio).
FIG. 5 graphically illustrates cytokine gene expression of interleukin-12P35+P40/interleukin-10 in tissue from CFS patients at the start of (pre-oxymatrine) and during oxymatrine therapy (n=17).
A cytokine gene expression study on blood samples before (Sample 2) and after (Sample 3) taking oxymatrine for 15 months in one patient, is graphically illustrated in FIG. 4. […] FIG. 5 illustrates that neutralizing antibodies CBV 3 and CBV 4 were obtained serially over a three year period (performed by ARUP laboratory, Salt Lake City, Utah).

[3] = test system: Varicella-Zoster Virus (VZV); assay: Case report: chronic recurrent Varicella-Zoster Virus infection (shingles); type: in vivo, human; details: Example 9 patient, 200 mg bid
Procedure: A person developed recurrent shingles after multiple episodes of sinus infections and sinus surgeries. They also had chronic indigestion and nausea. Fatigue became so severe that they were bedridden for several years.
Coxsackievirus B4 antibody was 1:320. […] The patient was started on oxymatrine 200 mg bid.

chronic hepatitis B = details: oral, after one year of treatment; cited from earlier work
enterovirus protein = assay: Immunoperoxidase staining of stomach biopsy for enterovirus protein (5D8/1); type: in vivo, human; details: one patient (case 5), before vs after taking oxymatrine for 6 months; correlated with symptomatic improvement
Source text: FIG. 2 illustrates the infected human stomach (biopsy of case 5 stained with 5D8/1) before treatment with oxymatrine.
FIG. 3 illustrates the stomach biopsy of case 5 stained with 5 D8/1 after taking oxymatrine for 6 months.
FIG. 2 illustrates immunoperoxidase staining for enterovirus protein in a stomach biopsy before oxymatrine therapy for one patient. […] The decrease in viral protein correlated with significant symptomatic improvement.

[4] = test system: Mycobacterium avium complex (MAC); assay: Case report: Mycobacterium avium complex infection of the lung; type: in vivo, human
Procedure: A person with known history of Mycobacterium avium complex (MAC) infection of the lung and bronchiectasis for several years was treated with clarithromycin, ethambutol, ciprofloxacin and rifabutin for about five years. […] Intravenous amikacin was added following right middle and left lingula lobectomy. In spite of the above therapy, sputum and repeat bronchial washing obtained by bronchoscopy grew MAC within three weeks. A computed tomography scan of the chest remained unchanged except for the post-surgical changes.
Because of persistent positive cultures despite the four drug therapies, the patient was started on oxymatrine, which they tolerated well. […] Sputum became clear in color then resolved. About two months after the start of oxymatrine, the patient had fevers, flu-like symptoms, increase in non-productive cough, bilateral uveitis and elevation of liver enzymes to 3.5 times normal values. The symptoms lasted two weeks and resolved after tapering dose of oxymatrine to 200 mg bid. Liver enzymes returned to normal within six weeks. […] The anti-MAC medications were discontinued after […] of oxymatrine therapy. The dose of oxymatrine was tapered to 100 mg tid at four and a half months of therapy and then stopped after six months of total therapy. The patient felt well at the six month follow-up.

[5] = side effects in 176 patients having taken oxymatrine
[6] = blood samples of one patient before and after 15 months of oxymatrine (FIG. 4)

O=C1CCC[C@@H]2[C@H]3CCC[N@+]4([O-])CCC[C@@H](CN12)[C@@H]34 [oxymatrine]
relapsed patients who responded to restart of oxymatrine ([1]; 13/15): Eighty-seven
patients relapsed after discontinuation of oxymatrine ([1]; 19/32, within two days to one month after discontinuation): Fifty-nine
duration of the increase in symptoms ([1]; better tolerated when dose increased gradually over 2-3 weeks or longer): a few days to several weeks
patients reporting transient, moderate increase in pre-existing symptoms ([1]; both, human, in vivo): more than 50%
changes of other chemistry parameters and complete blood counts (CBC) ([1]; compared to baseline values): no significant changes
tolerability in most of the patients ([1]; except variable increase of pre-existing symptoms during the first 1-2 days of maximal doses): tolerated oxymatrine well
patients responded to oxymatrine ([1]; first group (52/100), 200-300 mg twice a day, minimum three months, intent-to-treat, control 6% (7/114)): 52%
serious complications during therapy ([1]; human, in vivo): No serious complications
patients responded to treatment ([1]; next 104 patients): 52%
patients with elevated blood pressure that prompted discontinuation of therapy ([1]; of 204 patients): 2/204
patients with transient increase in potassium ([1]; of 204 patients, returned to normal without specific treatment): 2/204
patients responded to therapy ([1]; patients with elevated coxsackie virus B and echovirus antibody (57/107)): Fifty-three
patients improved ([1]; patients with non-typeable EV infections (49/97)): 50%
patients responded ([1]; patients with positive EV protein in stomach biopsies (47/91)): Fifty-two
Diffuse rashes, % of total patients [1, 5]: <1%
Dry eyes and mouth, % of total patients [1, 5]: 1%
Fevers, % of total patients [1, 5]: 2%
Herpes simplex virus outbreak after discontinuation, % of total patients [1, 5]: 1%
Increase in blood pressure, % of total patients [1, 5]: 1%
Increase in edema, % of total patients [1, 5]: 1%
Increased abdominal pain, % of total patients [1, 5]: 6%
Increased bladder symptoms, % of total patients [1, 5]: 2%
Increased diarrhea, % of total patients [1, 5]: 4%
Increased dizziness, % of total patients [1, 5]: 2%
Increased fatigue, % of total patients [1, 5]: 4%
Increased headache, % of total patients [1, 5]: 8%
Increased insomnia, % of total patients [1, 5]: 1%
Increased myalgia, % of total patients [1, 5]: 30%
Increased nausea, % of total patients [1, 5]: 6%
Increased palpitation, chest pain, % of total patients [1, 5]: 3%
Increased polyarthralgia, % of total patients [1, 5]: 1%
Increased sinus congestion, % of total patients [1, 5]: 3%
Inflammation of skin lesion, % of total patients [1, 5]: 1%
New rashes, % of total patients [1, 5]: <1%
Seizure (petit mal), % of total patients [1, 5]: <1%
Weight gain, % of total patients [1, 5]: 1%
outcome in one patient with severe increase in febrile response and marked worsening of symptoms ([1]; toward the end of three months of medication): lasting remission
patients who stopped oxymatrine due to intolerable side effects ([1]; within the first eight weeks, twenty patients): 10%
Th1 cytokines gene expression (interleukin-2, interleukin-12, interleukin-15) [2, 6]: significant increase
regulatory Th2 cytokine gene expression (interleukin-10) [2, 6]: significant decrease
increase of the interleukin-12P35+P40/interleukin-10 gene expression ratio ([2]; seven responders of n=17 CFS patients, pre-oxymatrine vs during therapy (FIG. 5)): greater than 2 fold
interleukin-12P35+P40/interleukin-10 gene expression ratio ([2]; ten non-responders of n=17 CFS patients (FIG. 5)): remained the same or decreased
outbreaks of shingles [3]: less often and not as severe
clinical outcome ([3]; three months): went back to full-time work
overall cure rate (chronic hepatitis B): about 40%
enterovirus protein in stomach biopsy by staining with monoclonal antibody 5D8/1 (enterovirus protein): significant reduction in viral protein
elevation of liver enzymes ([4]; about two months after start, returned to normal within six weeks after dose tapering to 200 mg bid): 3.5 times normal values
repeat computed tomography scans of the chest ([4]; in vivo): healing and calcifications of the lesions
repeat bronchial washing culture ([4]; six months after onset of oxymatrine therapy, with anti-MAC medications): no growth of MAC
night sweats ([4]; within two months): decreased from twice a week to once every two weeks
